Assay results reported in paper PMC5218480 (PLoS ONE, 2017).

Test system: MV-4-11 cells
Assay: Gene expression microarray analysis (Affymetrix PrimeView) and GSEA
Format: cell-based, human
Design: RFU PODN (11730768_x_at) / Fold change /veh PODN (11730768_x_at) / RFU LINC00158 (11744669_a_at) / Fold change /veh LINC00158 (11744669_a_at) / RFU DUSP10 (11751237_a_at) / Fold change /veh DUSP10 (11751237_a_at) / RFU ID3 (11757404_x_at) / Fold change /veh ID3 (11757404_x_at) / RFU PLEKHG5 (11737974_s_at) / Fold change /veh PLEKHG5 (11737974_s_at) / RFU LRRC4B (11730491_at) / Fold change /veh LRRC4B (11730491_at) / RFU GIMAP4 (11747438_a_at) / Fold change /veh GIMAP4 (11747438_a_at) / RFU KRT8 (11758183_x_at) / Fold change /veh KRT8 (11758183_x_at) / RFU CNN1 (11734310_a_at) / Fold change /veh CNN1 (11734310_a_at) / RFU VPS37D (11726825_at) / Fold change /veh VPS37D (11726825_at) / RFU C10orf10 (11716522_x_at) / Fold change /veh C10orf10 (11716522_x_at) / RFU KIR2DL2 /// KIR2DL4 /// KIR2DL5A /// KIR2DL5B /// KIR2DS1 /// KIR2DS2 /// KIR2DS3 /// KIR2DS4 /// KIR3DL3 /// KIR3DL3 /// KIR3DS1 (11738374_at) / Fold change /veh KIR2DL2 /// KIR2DL4 /// KIR2DL5A /// KIR2DL5B /// KIR2DS1 /// KIR2DS2 /// KIR2DS3 /// KIR2DS4 /// KIR3DL3 /// KIR3DL3 /// KIR3DS1 (11738374_at) / RFU C1QL1 (11718748_at) / Fold change /veh C1QL1 (11718748_at) / RFU TMPRSS4 (11747572_a_at) / Fold change /veh TMPRSS4 (11747572_a_at) / RFU HAMP (11756126_x_at) / Fold change /veh HAMP (11756126_x_at) / RFU RNFT2 (11725882_a_at) / Fold change /veh RNFT2 (11725882_a_at) / RFU NR4A2 (11747474_a_at) / Fold change /veh NR4A2 (11747474_a_at) / RFU ABCC12 (11746883_a_at) / Fold change /veh ABCC12 (11746883_a_at) / RFU TMEM136 (11760407_x_at) / Fold change /veh TMEM136 (11760407_x_at) / RFU CLDN22 /// WWC2 (11732394_at) / Fold change /veh CLDN22 /// WWC2 (11732394_at) / RFU HLA-DPB1 (11760878_x_at) / Fold change /veh HLA-DPB1 (11760878_x_at) / RFU SPINT1 (11716480_a_at) / Fold change /veh SPINT1 (11716480_a_at) / RFU GAP43 (11754022_s_at) / Fold change /veh GAP43 (11754022_s_at) / RFU A4GNT (11735810_at) / Fold change /veh A4GNT (11735810_at) / RFU PRB3 (11715151_x_at) / Fold change /veh PRB3 (11715151_x_at) / RFU TUBB4B (11761932_at) / Fold change /veh TUBB4B (11761932_at) / RFU CAPN14 (11732068_a_at) / Fold change /veh CAPN14 (11732068_a_at) / RFU TMCC2 (11721928_a_at) / Fold change /veh TMCC2 (11721928_a_at) / RFU IRGQ (11745062_a_at) / Fold change /veh IRGQ (11745062_a_at) / RFU FAM174B (11720279_a_at) / Fold change /veh FAM174B (11720279_a_at) / RFU TMPRSS4 (11748680_a_at) / Fold change /veh TMPRSS4 (11748680_a_at) / RFU FAM212B (11763350_a_at) / Fold change /veh FAM212B (11763350_a_at) / RFU PLEKHG5 (11743358_a_at) / Fold change /veh PLEKHG5 (11743358_a_at) / RFU ZSCAN30 (11745921_a_at) / Fold change /veh ZSCAN30 (11745921_a_at) / RFU CMKLR1 (11741424_a_at) / Fold change /veh CMKLR1 (11741424_a_at) / RFU LOC101060620 /// MAPK8IP1 (11723275_at) / Fold change /veh LOC101060620 /// MAPK8IP1 (11723275_at) / RFU SPTSSB (11747773_x_at) / Fold change /veh SPTSSB (11747773_x_at) / RFU PRSS12 (11739890_at) / Fold change /veh PRSS12 (11739890_at) / RFU BIN1 (11741810_x_at) / Fold change /veh BIN1 (11741810_x_at) / RFU WNT11 (11732464_a_at) / Fold change /veh WNT11 (11732464_a_at) / RFU C10orf10 (11716521_a_at) / Fold change /veh C10orf10 (11716521_a_at) / RFU C5orf56 (11738089_at) / Fold change /veh C5orf56 (11738089_at) / RFU CYB561 (11721691_x_at) / Fold change /veh CYB561 (11721691_x_at) / RFU ANKRD19P (11752326_a_at) / Fold change /veh ANKRD19P (11752326_a_at) / RFU OR2T12 /// OR2T33 /// OR2T8 (11738714_s_at) / Fold change /veh OR2T12 /// OR2T33 /// OR2T8 (11738714_s_at) / RFU VCAN (11748164_a_at) / Fold change /veh VCAN (11748164_a_at) / RFU JSRP1 (11732532_at) / Fold change /veh JSRP1 (11732532_at) / RFU KRTAP10-11 (11738290_x_at) / Fold change /veh KRTAP10-11 (11738290_x_at) / RFU MYO3A (11730013_a_at) / Fold change /veh MYO3A (11730013_a_at) / RFU EBF3 (11725865_a_at) / Fold change /veh EBF3 (11725865_a_at) / RFU CAMK2N1 (11719241_x_at) / Fold change /veh CAMK2N1 (11719241_x_at) / RFU C5orf56 (11738088_a_at) / Fold change /veh C5orf56 (11738088_a_at) / RFU OLFML3 (11715873_a_at) / Fold change /veh OLFML3 (11715873_a_at) / RFU LOC100653217 /// NTM (11731650_a_at) / Fold change /veh LOC100653217 /// NTM (11731650_a_at) / RFU MAPK11 (11762145_a_at) / Fold change /veh MAPK11 (11762145_a_at) / RFU FIZ1 (11724087_x_at) / Fold change /veh FIZ1 (11724087_x_at) / RFU OASL (11726364_x_at) / Fold change /veh OASL (11726364_x_at) / RFU SOX15 (11748057_x_at) / Fold change /veh SOX15 (11748057_x_at) / RFU CD79A (11719716_a_at) / Fold change /veh CD79A (11719716_a_at) / RFU HIST1H1D (11736915_at) / Fold change /veh HIST1H1D (11736915_at) / RFU CASKIN2 (11723855_a_at) / Fold change /veh CASKIN2 (11723855_a_at) / RFU LOC730098 (11760151_x_at) / Fold change /veh LOC730098 (11760151_x_at) / RFU OR4N2 (11742367_at) / Fold change /veh OR4N2 (11742367_at) / RFU PRRT2 (11749266_a_at) / Fold change /veh PRRT2 (11749266_a_at) / RFU SNX32 (11753110_a_at) / Fold change /veh SNX32 (11753110_a_at) / RFU CDHR5 (11726645_a_at) / Fold change /veh CDHR5 (11726645_a_at) / RFU RCAN1 (11760418_a_at) / Fold change /veh RCAN1 (11760418_a_at) / RFU FAM167A (11723789_a_at) / Fold change /veh FAM167A (11723789_a_at) / RFU FAM26E (11764081_at) / Fold change /veh FAM26E (11764081_at) / RFU ISYNA1 (11749810_s_at) / Fold change /veh ISYNA1 (11749810_s_at) / RFU ACY1 (11761880_at) / Fold change /veh ACY1 (11761880_at) / RFU 11764098_at / Fold change /veh 11764098_at / RFU SAMD14 (11745864_x_at) / Fold change /veh SAMD14 (11745864_x_at) / RFU NPB (11741838_a_at) / Fold change /veh NPB (11741838_a_at) / RFU TMPRSS6 (11731388_a_at) / Fold change /veh TMPRSS6 (11731388_a_at) / RFU KRTAP10-2 (11738614_at) / Fold change /veh KRTAP10-2 (11738614_at) / RFU ARHGAP8 /// PRR5-ARHGAP8 (11727945_x_at) / Fold change /veh ARHGAP8 /// PRR5-ARHGAP8 (11727945_x_at) / RFU KRTAP5-7 /// NADSYN1 (11734609_at) / Fold change /veh KRTAP5-7 /// NADSYN1 (11734609_at) / RFU RASL12 (11751679_a_at) / Fold change /veh RASL12 (11751679_a_at) / RFU CDKN2B (11736163_a_at) / Fold change /veh CDKN2B (11736163_a_at) / RFU PRF1 (11729649_at) / Fold change /veh PRF1 (11729649_at) / RFU, ZNF638 /// ZNF638-IT1 / Fold change vs veh, ZNF638 /// ZNF638-IT1 / RFU, PANK3 / Fold change vs veh, PANK3 / RFU, SH3YL1 / Fold change vs veh, SH3YL1 / RFU, ZEB2 / Fold change vs veh, ZEB2 / RFU, NRIP1 / Fold change vs veh, NRIP1 / RFU, PTTG1IP / Fold change vs veh, PTTG1IP / RFU, CAPN2 / Fold change vs veh, CAPN2 / RFU, MED14 / Fold change vs veh, MED14 / RFU, SNORA58 / Fold change vs veh, SNORA58 / RFU, C1orf63 / Fold change vs veh, C1orf63 / RFU, LRRFIP1 / Fold change vs veh, LRRFIP1 / RFU, NDUFAF7 / Fold change vs veh, NDUFAF7 / RFU, SLC12A2 / Fold change vs veh, SLC12A2 / RFU, IBTK / Fold change vs veh, IBTK / RFU, ESF1 / Fold change vs veh, ESF1 / Fold change vs veh, TMEM50B / RFU, TAOK1 / Fold change vs veh, TAOK1 / RFU, ACBD3 / Fold change vs veh, ACBD3 / RFU, TMA16 / Fold change vs veh, TMA16 / RFU, RWDD3 / Fold change vs veh, RWDD3 / RFU, BCAT1 / Fold change vs veh, BCAT1 / RFU, EDEM3 / Fold change vs veh, EDEM3 / RFU, TMEM33 / Fold change vs veh, TMEM33 / RFU, WDR75 / Fold change vs veh, WDR75 / RFU, AHCTF1 / Fold change vs veh, AHCTF1 / RFU, TFRC / Fold change vs veh, TFRC / RFU, ZDHHC17 / Fold change vs veh, ZDHHC17 / RFU, NOM1 / Fold change vs veh, NOM1 / RFU, ARL8B / Fold change vs veh, ARL8B / RFU, ZBTB11 / Fold change vs veh, ZBTB11 / RFU, TAMM41 / Fold change vs veh, TAMM41 / RFU, KIAA1704 /// LOC100996395 / Fold change vs veh, KIAA1704 /// LOC100996395 / RFU, ING1 / Fold change vs veh, ING1 / RFU, TRMT61B / Fold change vs veh, TRMT61B / RFU, FUBP3 / Fold change vs veh, FUBP3 / RFU, TP53 / Fold change vs veh, TP53 / RFU, TNKS2 / Fold change vs veh, TNKS2 / RFU, ZFP14 / Fold change vs veh, ZFP14 / RFU, ACTR2 / Fold change vs veh, ACTR2 / RFU, PPP3R1 / Fold change vs veh, PPP3R1 / RFU, PIK3R1 / Fold change vs veh, PIK3R1 / RFU, HNRNPA1 / Fold change vs veh, HNRNPA1 / RFU, RNF170 / Fold change vs veh, RNF170 / RFU, ZNF28 / Fold change vs veh, ZNF28 / RFU, RNGTT / Fold change vs veh, RNGTT / RFU, OGT / Fold change vs veh, OGT / RFU, BRD1 / Fold change vs veh, BRD1 / RFU, MARS / Fold change vs veh, MARS / RFU, ZNF655 / Fold change vs veh, ZNF655 / RFU, FAHD1 / Fold change vs veh, FAHD1 / RFU, BDP1 / Fold change vs veh, BDP1 / RFU, LRRCC1 / Fold change vs veh, LRRCC1 / RFU, ARID1A / Fold change vs veh, ARID1A / RFU, ZNF146 / Fold change vs veh, ZNF146 / RFU, ZNF330 / Fold change vs veh, ZNF330 / RFU, GPN3 / Fold change vs veh, GPN3 / RFU, C9orf123 / Fold change vs veh, C9orf123 / RFU, N4BP2L2 / Fold change vs veh, N4BP2L2 / RFU, ARFIP1 / Fold change vs veh, ARFIP1 / RFU, FAM179B / Fold change vs veh, FAM179B / RFU, BCL10 / Fold change vs veh, BCL10 / RFU, UHRF1BP1L / Fold change vs veh, UHRF1BP1L / RFU, BET1 / Fold change vs veh, BET1 / RFU, CNOT2 / Fold change vs veh, CNOT2 / RFU, ZNF268 / Fold change vs veh, ZNF268 / Fold change vs veh, ZNF507 / RFU, DGCR2 / Fold change vs veh, DGCR2 / RFU, WDSUB1 / Fold change vs veh, WDSUB1 / Fold change vs veh, HSP90B1 /// MIR3652 / RFU, ADSS / Fold change vs veh, ADSS / RFU, GK / Fold change vs veh, GK / RFU, ZNF148 / Fold change vs veh, ZNF148 / RFU, TAF9 / Fold change vs veh, TAF9 / RFU, SLC1A5 / Fold change vs veh, SLC1A5 / RFU, SLMO2 / Fold change vs veh, SLMO2 / RFU, ABCC4 / Fold change vs veh, ABCC4 / RFU, LOC101060439 /// RAP1B / Fold change vs veh, LOC101060439 /// RAP1B / RFU, RFX7 / Fold change vs veh, RFX7 / RFU, GTPBP10 / Fold change vs veh, GTPBP10 / RFU, CNEP1R1 / Fold change vs veh, CNEP1R1 / RFU, BIVM-ERCC5 /// ERCC5 / Fold change vs veh, BIVM-ERCC5 /// ERCC5 / RFU, ILF3 / Fold change vs veh, ILF3 / RFU 11762660_at / Fold change /veh 11762660_at / RFU VCAN (11757783_s_at) / Fold change /veh VCAN (11757783_s_at) / RFU DDX43 (11728927_at) / Fold change /veh DDX43 (11728927_at) / RFU KRT8 (11758188_x_at) / Fold change /veh KRT8 (11758188_x_at) / RFU NKD1 (11759106_at) / Fold change /veh NKD1 (11759106_at) / RFU SRD5A1 (11742802_a_at) / Fold change /veh SRD5A1 (11742802_a_at) / RFU TPSAB1 /// TPSB2 (11721975_s_at) / Fold change /veh TPSAB1 /// TPSB2 (11721975_s_at) / RFU GSTM3 (11746129_a_at) / Fold change /veh GSTM3 (11746129_a_at) / RFU IL23R (11737362_x_at) / Fold change /veh IL23R (11737362_x_at) / RFU TMEM51 (11727254_a_at) / Fold change /veh TMEM51 (11727254_a_at) / RFU PIWIL2 (11732686_x_at) / Fold change /veh PIWIL2 (11732686_x_at) / RFU ORM1 (11744905_x_at) / Fold change /veh ORM1 (11744905_x_at) / RFU CCDC152 (11743942_at) / Fold change /veh CCDC152 (11743942_at) / RFU ECM1 (11717891_a_at) / Fold change /veh ECM1 (11717891_a_at) / RFU IL23R (11748794_a_at) / Fold change /veh IL23R (11748794_a_at) / RFU TNFAIP8L3 (11732012_x_at) / Fold change /veh TNFAIP8L3 (11732012_x_at) / RFU MBOAT4 (11741988_at) / Fold change /veh MBOAT4 (11741988_at) / RFU 11764193_at / Fold change /veh 11764193_at / RFU TMEM53 (11763286_at) / Fold change /veh TMEM53 (11763286_at) / RFU MAGEB2 (11727129_at) / Fold change /veh MAGEB2 (11727129_at) / RFU TMEM200A (11744735_a_at) / Fold change /veh TMEM200A (11744735_a_at) / RFU CCDC152 (11751479_a_at) / Fold change /veh CCDC152 (11751479_a_at) / RFU FAM211A (11726209_a_at) / Fold change /veh FAM211A (11726209_a_at) / RFU RGS16 (11746705_a_at) / Fold change /veh RGS16 (11746705_a_at) / RFU VCAN (11755009_s_at) / Fold change /veh VCAN (11755009_s_at) / RFU RHOB (11743442_s_at) / Fold change /veh RHOB (11743442_s_at) / RFU RGS16 (11720943_a_at) / Fold change /veh RGS16 (11720943_a_at) / RFU RGS16 (11720944_at) / Fold change /veh RGS16 (11720944_at) / RFU, VPS4B / Fold change vs veh, VPS4B / RFU, CREB1 / Fold change vs veh, CREB1 / RFU, DNAJC13 / Fold change vs veh, DNAJC13 / RFU, GNAQ / Fold change vs veh, GNAQ / RFU, CDK5R1 / Fold change vs veh, CDK5R1 / RFU, ZRANB3 / Fold change vs veh, ZRANB3 / RFU, CUL4A / Fold change vs veh, CUL4A / RFU, CCNY / Fold change vs veh, CCNY / RFU, UFL1 / Fold change vs veh, UFL1 / RFU, COG3 / Fold change vs veh, COG3 / RFU, DIAPH2 / Fold change vs veh, DIAPH2 / RFU, SKA2 / Fold change vs veh, SKA2 / RFU, AFF3 / Fold change vs veh, AFF3 / RFU, LMF1 / Fold change vs veh, LMF1 / RFU, IPO11 / Fold change vs veh, IPO11 / RFU, DFFB / Fold change vs veh, DFFB / RFU, FOXP1 / Fold change vs veh, FOXP1 / RFU, CARD8 / Fold change vs veh, CARD8 / RFU, STRN3 / Fold change vs veh, STRN3 / RFU, ADK / Fold change vs veh, ADK / RFU, RASSF2 / Fold change vs veh, RASSF2 / RFU, WIPF1 / Fold change vs veh, WIPF1 / RFU, LARP1B / Fold change vs veh, LARP1B / RFU, RASA1 / Fold change vs veh, RASA1 / RFU, RB1 / Fold change vs veh, RB1 / RFU, PPFIA1 / Fold change vs veh, PPFIA1 / RFU, MAT2A / Fold change vs veh, MAT2A / RFU, CCT5 / Fold change vs veh, CCT5 / RFU, WDR92 / Fold change vs veh, WDR92 / RFU, CUX1 / Fold change vs veh, CUX1 / RFU, TTC7A / Fold change vs veh, TTC7A / RFU, TMEM135 / Fold change vs veh, TMEM135 / RFU, DEPTOR / Fold change vs veh, DEPTOR / RFU, CPM / Fold change vs veh, CPM / RFU, DNAJB6 / Fold change vs veh, DNAJB6 / RFU, CACNA2D3 / Fold change vs veh, CACNA2D3 / RFU, DTX4 / Fold change vs veh, DTX4 / RFU, TFCP2 / Fold change vs veh, TFCP2 / RFU, GMCL1 /// GMCL1P1 / Fold change vs veh, GMCL1 /// GMCL1P1 / RFU, AEBP2 / Fold change vs veh, AEBP2 / RFU, SNHG1 /// SNORD22 /// SNORD25 /// SNORD26 /// SNORD27 /// SNORD28 /// SNORD29 /// SNORD31 / Fold change vs veh, SNHG1 /// SNORD22 /// SNORD25 /// SNORD26 /// SNORD27 /// SNORD28 /// SNORD29 /// SNORD31 / Fold change (Aza/veh), C12orf56 (ProbeSet 11735607_a_at) / Fold change (ACY-1035/veh), C12orf56 (ProbeSet 11735607_a_at) / Fold change (Aza/veh), FGFR1OP (ProbeSet 11751329_s_at) / Fold change (ACY-1035/veh), FGFR1OP (ProbeSet 11751329_s_at) / Fold change (Aza/veh), VPS36 (ProbeSet 11739960_a_at) / Fold change (ACY-1035/veh), VPS36 (ProbeSet 11739960_a_at) / RFU SYPL1 (11715823_x_at) / Fold change /veh SYPL1 (11715823_x_at) / RFU IGFBP7 (11715501_s_at) / Fold change /veh IGFBP7 (11715501_s_at) / RFU REEP3 (11722064_at) / Fold change /veh REEP3 (11722064_at) / RFU IGLL1 (11728026_x_at) / Fold change /veh IGLL1 (11728026_x_at): dose or concentration left out as unconfirmed
Details: ProbeSet 11743929_at; LIST B

Nc1ncn([C@@H]2O[C@H](CO)[C@@H](O)[C@H]2O)c(=O)n1 [azacitidine]
Fold change vs veh, UHRF1BP1L: 0.95
